Patent US11752105B2, “Spray drying process with continuous preparation of spray solution” (Hovione Scientia Limited, priority 2018, dated 2023)

Assay: Continuous solution preparation: suspension passed through series of five micro-reactors (continuous dissolution)
Format: physicochemical
Settings: solvent H2O; concentration 0.3 % wt
Source text: The resulting suspension was continuously passed through a series of five micro-reactors with microchannels having 500 micron diameter by means of an intensifier pump (MicroDeBEE) at a pressure of 1862 bar. […] The same experiment was repeated with the same setup for other pharmaceutical excipients and solvents. Trihalose is crystalline form and was used as a model for crystalline molecules to mimic API's.

CC(C)C[C@H](N)C(=O)O [L-Leucine]
Continuous dissolution: YES
